{"source": "paper PMC6273649", "about": "“Synthesis of Novel Quaternary Ammonium Salts and Their in Vitro Antileishmanial Activity and U-937 Cell Cytotoxicity” (Molecules, 2016)", "key": {"[1]": {"system": "intracellular amastigotes of L. (V) panamensis-pIR-eGFP", "experiment": "organism not typed", "format": "cell-based", "settings": "L. (V) panamensis in U-937 cells, flow cytometry, 72 h; mean ± standard deviation", "procedure": "(§1) Virulent L. (V) panamensis MHOM/CO/87/UA140 strain transfected with green fluorescent protein gene called L. (V) panamensis-pIR-eGFP was maintained by successive passaging in golden hamsters (Mesocricetus auratus). Briefly, amastigotes were aspirated from cutaneous lesions of hamsters experimentally infected with promastigotes of L. (V) panamensis-pIR-eGFP. Samples were cultured in biphasic culture with Novy-MacNeal-Nicholle (NNN) medium as solid phase and PBS plus glucose, pH 6.9 as liquid phase and incubated at 26 °C to obtain promastigotes. Medium was changed every week until 2 months.\nIntracellular amastigotes were obtained after infection of U-937 cells with promastigotes. Briefly, U-937 cells were dispensed in 24-well plates at a concentration of 300,000 cells/well and were treated with 1 µM of phorbol myristate acetate (PMA) (Sigma) for 48 h at 37 °C. Then, cells were infected with promastigotes in stationary growth phase (day 5) at a ratio of 1:15 cell/parasite and incubated for 3 h at 34 °C in 5% CO2. […] After 24 h of infection, cells were ready to be used in antileishmanial testing assay as described below.\nThe effect of compounds against intracellular amastigotes of L. (V) panamensis-pIR-eGFP was evaluated by flow cytometry using the methodology described by others. […] Infected and treated cells were maintained at 34 °C and 5% CO2 for 72 h. After 72 h, cells were washed twice with 1 mL of cold PBS and cells were removed from the bottom plate with a trypsin/EDTA ([…]) solution. Recovered cells were centrifuged at 1100 rpm for 10 min at 4 °C, the supernatant was discarded and cells were washed with 1 mL of cold PBS and centrifuged at 1100 rpm for 10 min at 4 °C. Supernatant was discarded and cells were suspended in 500 μL of PBS and analyzed by flow cytometry (FC 500MPL, Cytomics, Brea, CA, USA) using histogram analyses (Figure 2). […] Each concentration of compounds was tested in triplicate in two independent experiments.\nThe antileishmanial activity in intracellular amastigotes was determined according to the reduction of infected cells and parasite load (viable parasites inside infected cells) obtained for each experimental condition. The percentage of infected cell inhibition and parasite load for each concentration of each compound were calculated first using Equation (3): % infection = (% infected and treated cells ÷ % infected and untreated cells) × 100(3)\nAnd then, the percentage of infection inhibition was calculated using Equation (4): % Inhibition = 100 − % infection(4)"}, "[2]": {"system": "axenic amastigotes of L. (V) panamensis", "experiment": "organism not typed", "format": "cell-based", "procedure": "as §1\nThe axenic amastigotes were obtained from promastigotes cutured in Schneider’s medium, as described elsewhere. Briefly, promastigotes of L. (V) panamensis-pIR-eGFP at 5 × 10^6 parasites/mL were cultured in Schneider medium (Sigma), pH 5.4 supplemented with 20% FBS and 1% antibiotics and incubation at 26 °C. Every three days, medium was changed and temperature was increased one degree each time until it reached 32 °C at which the transformation of the promastigotes into axenic amastigotes is achieved. After three days of growing as axenic amastigotes, parasites were ready to be used in the antileishmanial testing assay as described below.\nThe ability of compounds to kill axenic amastigotes of L. (V) panamensis was determined based on the viability of the parasites after exposure to each compound evaluated by the MTT method following the methodology described by others. Axenic amastigotes obtained as described above were harvested, washed, and adjusted at 2 × 10^6 parasites/mL in fresh Schneider’s medium with 20% FBS. Into each well of a 96-well plate 100 µL of parasite suspension (2 × 10^5 axenic amastigotes) were dispensed and then 100 µL of each concentration of the corresponding compound were added. […] Plates were incubated at 32 °C. After 72 h of incubation, the effect of each compound was determined by adding 10 µL/well of MTT and incubating at 32 °C for 3 h. The reaction was stopped as described above and the quantity of formazan produced was measured in a plate reader spectrophotometer (Bio-Rad) set at 570 nm. Axenic amastigotes cultivated in the absence of any compound but maintained under the same conditions were used as controls for growth and viability (negative control) while parasites cultivated in the presence of MA were used as controls for leishmanicidal activity (positive control). Assays were performed at least twice with three replicates per each concentration tested.\nIn turn, activity of compounds with axenic amastigotes was determined according to the reduction of parasite growth percentages obtained for each experimental condition. The percentage of parasite growth was calculated first using Equation (5): % parasite growth = (O.D. treated ax. amastigotes)/(O.D. of untreated ax. amastigotes) × 100(5) where the O.D. of the untreated axenic amastigotes corresponds to 100% parasite growth. Then, the percentage of parasite growth inhibition was calculated using Equation (6): % parasite growth inhibition = 100 − % parasite growth(6)"}, "[3]": {"system": "U-937 cells", "experiment": "in vitro", "settings": "U-937 cells", "procedure": "U-937 promonocytes (CRL1593.2™) were obtained from the American Type Culture Collection (ATCC, Manassas, VA, USA), cultured in complete medium containing RPMI 1640 medium (Sigma) supplemented with 10% fetal bovine serum (FBS) (Gibco, Life Technologies, Grand Island, NY, USA) and 1% antibiotics (100 U/mL penicillin and 0.1 mg/mL streptomycin) (Sigma). Cells were maintained in standard conditions at 37 °C, 5% CO2 with change of medium every three days until use.\nThe cytotoxicity of compounds was assessed based on the viability of U-937 cells and evaluated by the MTT (3-(4,5-dimethylthiazol-2-yl)-2,5-diphenyltetrazolium bromide) method as described by others. Briefly, into each well of a 96-well cell-culture dishes 100,000 cells/100 μL were dispensed in RPMI-1640 supplemented with 10% FBS and 100 μL of the corresponding concentrations of the corresponding product. Six two fold serial dilutions were tested starting at 200 µg/mL (200, 100, 50, 25, 12.5 and 6.25 μg/mL). Cells were incubated at 37 °C with 5% CO2 for 72 h in the presence of compounds, and then the effect was determined by measuring the activity of the mitochondrial dehydrogenase by adding 10 µL/well of MTT solution (0.5 mg/mL) and incubating at 37 °C for 3 h. The reaction was stopped by adding 100 μL /well of 50% isopropanol solution with 10% sodium dodecyl sulfate for 30 min. Cell growth was determined based on the quantity of formazan produced, which was measured at 570 nm in a plate reader spectrophotometer (Bio-Rad, Hercules, CA, USA). Cells cultured in the absence of products were used as cell growth controls (negative control), while cells cultured in presence of amphotericin B (AmB, Sigma) and meglumine antimoniate (MA, Sanofi-Aventis, Bogotá, Colombia) were used as cytotoxicity controls (positive control). Each concentration was tested in triplicate in at least two independent experiments.\nCytotoxicity was determined according to the percentages of cell growth (viability) obtained for each tested compound or medium alone. Percentages of viability were calculated first using Equation (1): % Viability = (O.D. of treated cells)/(O.D. of untreated cells) × 100(1) where the O.D. of the untreated cells corresponds to 100% viability. Then, the percentage of cell growth inhibition was calculated using Equation (2): % Cell growth inhibition = 100 − % Viability(2)\nThe degree of cytotoxicity was established as convenient according to the LC50 values, using our own scale: high cytotoxicity: LC50 < 100 μg/mL, moderate cytotoxicity: 100 μg/mL < LC50 < 200 μg/mL; and potential non-cytotoxicity: LC50 > 200 μg/mL."}}, "data": [{"substance": "meglumine antimoniate [MA, reference compound]", "values": [{"measurement": "Intracellular Amastigotes EC50", "setting": "[1]", "value": "6.33 ± 0.86", "unit": "µg/mL"}, {"measurement": "Axenic Amastigotes EC50", "setting": "[2]; L. (V) panamensis axenic amastigotes, MTT, 72 h, mean ± standard deviation", "value": "312.1 ± 18.6", "unit": "µg/mL"}, {"measurement": "degree of leishmanicidal activity, axenic amastigotes", "setting": "[2]; authors' own scale by EC50", "value": "not active"}, {"measurement": "Cytotoxicity LC50", "setting": "[3]; MTT, 72 h, mean ± standard deviation", "value": "358.2 ± 1.7", "unit": "µg/mL"}, {"measurement": "degree of cytotoxicity", "setting": "[3]; authors' own scale by LC50", "value": "potentially non-cytotoxic"}]}]}
